Experimental data: US20230043863A1, “HETEROAROMATIC DERIVATIVES FOR USE AS REGULATOR, PREPARATION METHOD THEREFOR AND USE THEREOF” (JIANGSU HANSOH PHARMACEUTICAL GROUP CO., LTD., priority 2018, published 2023)

Assays:
JAK1 = JAK1 (Homo sapiens, UniProt P23458); experiment: JAK kinase activity inhibition, TR-FRET (JAK1); assay type: biochemical; details: TR-FRET kinase assay
In short: (§1)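 Steps: compound dilutions added; JAK kinase (0.1-20 nM) in HEPES/MgCl2 buffer added; peptide substrate and ATP mix started the reaction, 0.5-5 h at room temperature; EDTA and labeled antibody added, 1-24 h further. IC50 derived from 620/665 nm signals by four-parameter nonlinear fitting.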

[1] = system: C57BL/6 mouse colitis model induced by DSS; experiment: C57BL/6 mouse colitis model induced by DSS, daily disease index; assay type: in vivo; details: po, 216 h, 10 mg/kg p.o. BID, Day 0-9, vs vehicle group, read-out: reduction ratio of DAI AUC
Protocol: To evaluate the drug efficacy of the embodiment compound on the C57BL/6 mouse colitis model induced by DSS (dextran sulfate sodium).
According to the weight of the animal, BioBook software was used to randomly group the animals on day −1 to ensure that the weight values of each group of animals were similar to reduce deviation, and the grouping and dosing regimen are shown in the following Table.
Drinking water containing DSS: an appropriate amount of DSS powder was dissolved in the autoclaved drinking water to prepare a 2% DSS solution.
On day −1, the animals were equally divided into 12 groups with 10 animals in each group. (Refer to Table 1 for specific grouping scheme)
From 9:00 on day 0 to 9:00 on day 6, the mice in groups 2 to 9 were given 2% DSS aqueous solution for 6 days (from day 0 to day 6), after which the mice were allowed to freely drink normal water for 3 days (from 9:00 on day 6 to before necropsy on day 9). The day of modeling was counted as day 0. The DSS aqueous solution was wrapped in tin foil to protect it from light. The DSS aqueous solution was replaced every 2 days.
The mice in group 1 are allowed to drink normal water freely for 9 days (from 9:00 on day 0 to before necropsy on day 9).
The recording frequency was once a day, and 4 levels were rated according to the following standards:
Bloody stool (0: negative; 4: positive);
Stool score (0: normal; 2: loose stool; 4: diarrhea)
Daily Disease Index (DAI) was obtained by dividing the sum the scores of the above 3 parts by 3. DAI-time (day) curve based on the daily DAI score was plotted, and the peak area (AUC) under the curve was calculated. The reduction ratio of DAI AUC was calculated by comparing the administration group with the vehicle group, with a calculation formula of (DAI AUCadministration group-DAI AUCvehicle)/DAI AUCVehicle×100%

TYK2 = TYK2 (Homo sapiens, UniProt P29597); experiment: JAK kinase activity inhibition, TR-FRET (TYK2); assay type: biochemical; details: TR-FRET kinase assay
TYK2, sequence (P29597 whole entry): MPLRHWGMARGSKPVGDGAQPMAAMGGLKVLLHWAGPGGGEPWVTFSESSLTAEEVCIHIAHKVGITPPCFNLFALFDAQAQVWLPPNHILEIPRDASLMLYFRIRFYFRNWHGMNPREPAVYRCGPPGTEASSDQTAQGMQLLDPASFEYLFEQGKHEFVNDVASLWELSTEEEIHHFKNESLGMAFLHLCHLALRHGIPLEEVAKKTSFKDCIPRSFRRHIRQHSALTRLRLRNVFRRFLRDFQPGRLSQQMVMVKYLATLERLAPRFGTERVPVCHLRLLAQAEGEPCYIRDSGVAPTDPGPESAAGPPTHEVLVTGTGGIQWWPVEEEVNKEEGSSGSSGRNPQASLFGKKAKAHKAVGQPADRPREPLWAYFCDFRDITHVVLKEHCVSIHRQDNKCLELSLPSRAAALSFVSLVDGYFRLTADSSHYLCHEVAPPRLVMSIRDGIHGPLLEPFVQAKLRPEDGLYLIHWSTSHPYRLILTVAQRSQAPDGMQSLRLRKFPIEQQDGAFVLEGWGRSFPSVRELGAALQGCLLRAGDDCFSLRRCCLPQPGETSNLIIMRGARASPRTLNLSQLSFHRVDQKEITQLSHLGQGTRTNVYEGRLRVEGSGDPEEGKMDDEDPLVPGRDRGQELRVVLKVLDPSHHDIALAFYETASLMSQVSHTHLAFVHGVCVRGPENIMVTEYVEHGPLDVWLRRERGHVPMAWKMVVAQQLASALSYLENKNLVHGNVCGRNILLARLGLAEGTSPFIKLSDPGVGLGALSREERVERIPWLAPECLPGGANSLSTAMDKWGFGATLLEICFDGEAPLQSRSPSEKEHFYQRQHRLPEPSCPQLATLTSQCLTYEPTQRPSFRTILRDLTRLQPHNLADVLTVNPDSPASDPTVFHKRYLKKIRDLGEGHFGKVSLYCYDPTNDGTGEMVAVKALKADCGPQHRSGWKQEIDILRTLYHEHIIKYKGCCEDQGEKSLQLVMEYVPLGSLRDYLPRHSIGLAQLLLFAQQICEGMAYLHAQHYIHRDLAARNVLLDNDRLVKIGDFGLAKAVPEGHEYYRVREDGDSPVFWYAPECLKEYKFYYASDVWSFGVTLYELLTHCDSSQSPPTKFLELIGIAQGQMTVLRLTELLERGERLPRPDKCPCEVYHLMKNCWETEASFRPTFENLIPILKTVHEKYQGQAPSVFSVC
In short: as §1

[2] = system: JAK-STAT signal pathway of U266 cells; experiment: Inhibition of cellular JAK-STAT signal pathway (STAT3 phosphorylation) in U266 cells; assay type: cell-based, human; details: Homo sapiens, U-266, INF-a 1000 U/mL stimulation
In short: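 U266 cells (100-300 K/well) preincubated 2 h at room temperature with serially diluted compound, then stimulated 15 min with IFN-α at 1000 U/mL final. After lysis, STAT3 phosphorylation read by LANCE Ultra TR-FRET (Eu antibody 0.5 nM, ULight antibody 5 nM, overnight) at 665 nm; IC50 from 4-parameter fit of inhibition versus DMSO and negative controls.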

JAK1, sequence (P23458 whole entry): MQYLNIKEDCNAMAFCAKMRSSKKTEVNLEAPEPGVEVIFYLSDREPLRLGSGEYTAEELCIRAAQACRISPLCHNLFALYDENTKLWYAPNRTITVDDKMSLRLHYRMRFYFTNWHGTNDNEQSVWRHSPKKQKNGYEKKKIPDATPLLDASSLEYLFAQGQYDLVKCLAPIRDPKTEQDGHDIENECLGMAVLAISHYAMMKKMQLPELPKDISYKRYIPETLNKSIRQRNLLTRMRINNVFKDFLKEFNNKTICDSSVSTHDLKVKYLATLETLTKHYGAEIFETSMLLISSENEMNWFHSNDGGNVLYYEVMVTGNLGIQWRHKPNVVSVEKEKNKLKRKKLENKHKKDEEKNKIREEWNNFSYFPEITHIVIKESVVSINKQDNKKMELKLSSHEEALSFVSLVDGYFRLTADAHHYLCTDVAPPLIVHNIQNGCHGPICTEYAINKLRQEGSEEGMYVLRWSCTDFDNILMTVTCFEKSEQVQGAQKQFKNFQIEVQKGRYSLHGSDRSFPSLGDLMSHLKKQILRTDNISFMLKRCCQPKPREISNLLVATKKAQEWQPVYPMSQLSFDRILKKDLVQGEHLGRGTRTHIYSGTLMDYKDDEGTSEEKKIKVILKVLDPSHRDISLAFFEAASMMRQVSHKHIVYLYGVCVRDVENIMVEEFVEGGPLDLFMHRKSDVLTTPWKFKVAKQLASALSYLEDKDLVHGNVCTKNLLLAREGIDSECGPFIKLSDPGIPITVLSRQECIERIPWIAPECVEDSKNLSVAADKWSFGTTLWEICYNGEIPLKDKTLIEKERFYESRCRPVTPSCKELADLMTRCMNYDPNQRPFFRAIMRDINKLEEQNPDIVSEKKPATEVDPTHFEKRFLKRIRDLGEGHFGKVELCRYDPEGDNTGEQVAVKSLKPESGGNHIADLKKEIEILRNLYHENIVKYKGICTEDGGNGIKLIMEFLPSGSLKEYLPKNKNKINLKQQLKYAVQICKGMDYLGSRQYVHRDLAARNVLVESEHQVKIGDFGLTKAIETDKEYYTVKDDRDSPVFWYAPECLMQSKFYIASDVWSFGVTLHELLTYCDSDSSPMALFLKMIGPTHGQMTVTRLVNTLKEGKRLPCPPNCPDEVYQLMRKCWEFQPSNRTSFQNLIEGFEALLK

SMILES: Cc1cc(Nc2nc(N[C@@H]3C[C@H]4CC[C@@H](C3)N4CCC#N)nc3sccc23)n[nH]1 [Embodiment 62, 3-((3-exo)-3-((4-((5-methyl-1H-pyrazol-3-yl)amino)thieno[2,3-d]pyrimidin-2-yl)amino)-8-azabicyclo[3.2.1]oct-8-yl)propionitrile]
- IC50 (JAK1): 80 pM
- change in vivo at 10 mg/kg [1]: -32.2%
- IC50 (TYK2): 170 pM
- IC50 [2]: 1900 pM
